The record followed here is patent US10703733B2, “MCL-1 inhibitors” (Gilead Sciences, Inc., priority 2018, dated 2020).

Read-outs that look alike come from different tables or passages of the source.

For assay [1], the target named is MCL-1/Bim interaction (recombinant human MCL-1 protein, residues 171-327; biotinylated human Bim peptide, residues 51-76) (Homo sapiens (Human), UniProt Q07820). Description: MCL-1/Bim Binding AlphaLISA Assay. The conditions noted are these: 0.0625 nM 6xHis-Mcl-1 (171-327), 0.0625 nM biotinylated-Bim peptide. The procedure, abridged:
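AlphaLISA with 0.0625 nM His-tagged MCL-1 and 0.0625 nM biotin-Bim peptide in 20 mM Hepes pH 7.5, 150 mM NaCl, 0.002% Brij 35, 1 mM DTT, 0.01% BSA. Compound preincubated 1 h with MCL-1, Bim added for 2 h, then acceptor and donor beads 1 h each.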

The subject of the next assay is SKBR3 cells. Description: SKBR3 Cell Viability Assay (CellTiter Glo). The class given is cell-based. Conditions: CellTiter Glo luminescence, read-out: MCL-1 CV SKBR3 EC50. Summed up: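 SKBR3 cells (6,000/well) in McCoy 5A + 10% FBS exposed to serially diluted compound for 72 h at 37° C., 5% CO2. Viability by CellTiter Glo luminescence; % inhibition normalized to DMSO (negative) and 10 μM puromycin (positive).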
In general terms: ATP-based viability assays read luminescence as a measure of living cells.

Sequence of MCL-1/Bim interaction (recombinant human MCL-1 protein, residues 171-327; biotinylated human Bim peptide, residues 51-76) (Q07820 171-327): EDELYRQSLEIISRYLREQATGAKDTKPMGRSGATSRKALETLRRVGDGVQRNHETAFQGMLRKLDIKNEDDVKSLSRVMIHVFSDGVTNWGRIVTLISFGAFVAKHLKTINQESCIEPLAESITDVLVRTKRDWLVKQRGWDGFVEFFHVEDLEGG

As usually defined, the IC50 is the concentration that gives 50% inhibition. For orientation: EC50 means the concentration at which the effect is half-maximal. For `CO[C@H]1/C=C/C[C@H](C)C[S@@](=O)(NC(=O)c2cc3n(c2)CCOC3)=NC(=O)c2ccc3c(c2)N(C[C@@H]2CC[C@H]21)C[C@@]1(CCCc2cc(Cl)ccc21)CO3` [Example 139], the IC50 in assay [1] was found to be 0.116 nM. Moreover, the EC50 in the assay with SKBR3 cells (Homo sapiens, SK-BR-3, 72 h) came out at 94.1 nM.
The like results for `CO[C@H]1/C=C/CCC[S@@](=O)(NC(=O)CCc2cnccn2)=NC(=O)c2ccc3c(c2)N(C[C@@H]2CC[C@H]21)C[C@@]1(CCCc2cc(Cl)ccc21)CO3` [Example 35] were, in that order, 0.2 nM and 266 nM.
Consider `COC1CN(C(=O)N[S@@]2(=O)=NC(=O)c3ccc4c(c3)N(C[C@@H]3CC[C@H]3[C@@H](OC)/C=C/C[C@H](C)C2)C[C@@]2(CCCc3cc(Cl)ccc32)CO4)C1` [Example 362], for which the IC50 in assay [1] came to 0.024 nM. In addition, in the assay with SKBR3 cells (Homo sapiens, SK-BR-3, 72 h), the EC50 was 17.3 nM.
The like results for `CO[C@H]1/C=C/C[C@H](C)C[S@@](=O)(NC(=O)c2cc3n(c2)C[C@@H](C)OC3)=NC(=O)c2ccc3c(c2)N(C[C@@H]2CC[C@H]21)C[C@@]1(CCCc2cc(Cl)ccc21)CO3` [Example 168] were, in that order, 0.222 nM and 74.2 nM.
The like results for `CO[C@H]1/C=C/C[C@H](C)C[S@@](=O)(NC(=O)C2CC3(CCC3)C2)=NC(=O)c2ccc3c(c2)N(C[C@@H]2CC[C@H]21)C[C@@]1(CCCc2cc(Cl)ccc21)CO3` [Example 436] were, in that order, 0.886 nM and 753 nM.
The like results for `CO[C@H]1/C=C/C[C@H](C)C[S@@](=O)(NC(=O)c2cn(C)nc2C(F)F)=NC(=O)c2ccc3c(c2)N(C[C@@H]2CC[C@H]21)C[C@@]1(CCCc2cc(Cl)ccc21)CO3` [Example 448] were, in that order, 0.117 nM and 251 nM.
`CO[C@H]1/C=C/C[C@H](C)C[S@@](=O)(NC(=O)c2cnsc2)=NC(=O)c2ccc3c(c2)N(C[C@@H]2CC[C@H]21)C[C@@]1(CCCc2cc(Cl)ccc21)CO3` [Example 411]: the IC50 in assay [1] was 0.178 nM. In addition, the concentration giving a half-maximal response (EC50) in the assay on SKBR3 cells (Homo sapiens, SK-BR-3, 72 h) is 175 nM.
The like results for `COc1nn(C)cc1C(=O)N[S@@]1(=O)=NC(=O)c2ccc3c(c2)N(C[C@@H]2CC[C@H]2[C@@H](OC(=O)CN(C)C)/C=C/C[C@H](C)C1)C[C@@]1(CCCc2cc(Cl)ccc21)CO3` [Example 301] were, in that order, 0.04 nM and 41.9 nM.
Take `COC(=O)N[C@H](C(=O)N1CCN(C(=O)N[S@@]2(=O)=NC(=O)c3ccc4c(c3)N(C[C@@H]3CC[C@H]3[C@@H](OC)/C=C/C[C@H](C)C2)C[C@@]2(CCCc3cc(Cl)ccc32)CO4)C[C@@H]1C)C(C)C` [Example 285]: in assay [1], the IC50 was found to be 0.131 nM. For the same compound, the EC50 in the assay with SKBR3 cells (Homo sapiens, SK-BR-3, 72 h) is 79.7 nM.
As for `CCC(=O)N[S@]1(=O)=NC(=O)c2ccc3c(c2)N(C[C@@H]2CC[C@H]2[C@@H](OC)/C=C/CC[C@H]1CC)C[C@@]1(CCCc2cc(Cl)ccc21)CO3` [Example 64], the IC50 in assay [1] came to 5.2 nM. Besides, the EC50 in the assay on SKBR3 cells (72 hours) was 5830 nM.
For the compound `CNc1nn(C)cc1C(=O)N[S@@]1(=O)=NC(=O)c2ccc3c(c2)N(C[C@@H]2CC[C@H]2[C@@H](OC)/C=C/C[C@H](C)C1)C[C@@]1(CCCc2cc(Cl)ccc21)CO3` [Example 212], the IC50 in assay [1] turned out to be 0.04 nM. The half-maximal effective concentration (EC50) in the assay with SKBR3 cells (Homo sapiens, SK-BR-3, 72 h) amounted to 37.6 nM.
The like results for `COc1nn(C)cc1C(=O)N[S@@]1(=O)=NC(=O)c2ccc3c(c2)N(C[C@@H]2CC[C@H]2[C@@H](OC)/C=C/[C@H](OC(C)=O)[C@H](C)C1)C[C@@]1(CCCc2cc(Cl)ccc21)CO3` [Example 393] were, in that order, 0.062 nM and 33.4 nM.
The like results for `COc1c(C(=O)N[S@@]2(=O)=NC(=O)c3ccc4c(c3)N(C[C@@H]3CC[C@H]3[C@@H](OC)/C=C/C[C@H](C)C2)C[C@@]2(CCCc3cc(Cl)ccc32)CO4)cn2c1C[C@@H](OC)C2` [Example 224] were, in that order, 0.195 nM and 83.5 nM.
As to `CO[C@H]1/C=C/C[C@H](C)C[S@@](=O)(NC(=O)N[C@H]2C[C@H](O)C2)=NC(=O)c2ccc3c(c2)N(C[C@@H]2CC[C@H]21)C[C@@]1(CCCc2cc(Cl)ccc21)CO3` [Example 452], in assay [1], the IC50 was 0.045 nM. Besides, the EC50 in the assay with SKBR3 cells (Homo sapiens, SK-BR-3, 72 h) is 282 nM.
As to `CO[C@H]1/C=C/CCC[S@@](=O)(NC(=O)CCn2nccc2C)=NC(=O)c2ccc3c(c2)N(C[C@@H]2CC[C@H]21)C[C@@]1(CCCc2cc(Cl)ccc21)CO3` [Example 56], the IC50 in assay [1] is 0.6 nM. Moreover, the EC50 in the assay with SKBR3 cells (Homo sapiens, SK-BR-3, 72 h) stood at 1180 nM.
In the case of `CO[C@H]1/C=C/CCC[S@@](=O)(NC(=O)CCc2ccccc2)=NC(=O)c2ccc3c(c2)N(C[C@@H]2CC[C@H]21)C[C@@]1(CCCc2cc(Cl)ccc21)CO3` [Example 97], the IC50 in assay [1] is 0.6 nM. For the same compound, the EC50 with SKBR3 cells (Homo sapiens, SK-BR-3, 72 h) came out at 788 nM.
The like results for `COc1nn(C)cc1C(=O)N[S@@]1(=O)=NC(=O)c2ccc3c(c2)N(C[C@@H]2CC[C@H]2[C@@H](OCCN2CCOCC2)/C=C/C[C@H](C)C1)C[C@@]1(CCCc2cc(Cl)ccc21)CO3` [Example 366] were, in that order, 0.086 nM and 53.1 nM.
For the compound `CO[C@H]1/C=C/C[C@H](C)C[S@@](=O)(NC(=O)c2cc3ccncn3c2)=NC(=O)c2ccc3c(c2)N(C[C@@H]2CC[C@H]21)C[C@@]1(CCCc2cc(Cl)ccc21)CO3` [Example 163], the IC50 in assay [1] worked out at 0.263 nM. In addition, the EC50 with SKBR3 cells (Homo sapiens, SK-BR-3, 72 h) was found to be 98.7 nM.
The like results for `CO[C@H]1/C=C/C[C@H](C)C[S@@](=O)(NC(=O)c2cc(C)cs2)=NC(=O)c2ccc3c(c2)N(C[C@@H]2CC[C@H]21)C[C@@]1(CCCc2cc(Cl)ccc21)CO3` [Example 434] were, in that order, 0.446 nM and 403 nM.
The like results for `CO[C@H]1/C=C/C[C@H](C)C[S@@](=O)(NC(=O)N2CC3(COCCO3)C2)=NC(=O)c2ccc3c(c2)N(C[C@@H]2CC[C@H]21)C[C@@]1(CCCc2cc(Cl)ccc21)CO3` [Example 248] were, in that order, 0.042 nM and 55.3 nM.
With `CO[C@H]1/C=C/C[C@H](C)C[S@@](=O)(NC(=O)N[C@H]2C[C@@H](OC)C2)=NC(=O)c2ccc3c(c2)N(C[C@@H]2CC[C@H]21)C[C@@]1(CCCc2cc(Cl)ccc21)CO3` [Example 149], the IC50 in assay [1] is 0.109 nM. In addition, the EC50 in the assay on SKBR3 cells (Homo sapiens, SK-BR-3, 72 h) is 95.3 nM.
Regarding `CO[C@H]1/C=C/C[C@H](C)C[S@@](=O)(NC(=O)N[C@@H]2CCOC2)=NC(=O)c2ccc3c(c2)N(C[C@@H]2CC[C@H]21)C[C@@]1(CCCc2cc(Cl)ccc21)CO3` [Example 155], in assay [1], the IC50 was determined as 0.06 nM. Also, the 50% effective concentration (EC50) in the assay on SKBR3 cells (Homo sapiens, SK-BR-3, 72 h) amounted to 43 nM.
`CO[C@H]1/C=C/C[C@H](C)C[S@@](=O)(NC(=O)N[C@H]2C[C@@H]2CN2CCOCC2)=NC(=O)c2ccc3c(c2)N(C[C@@H]2CC[C@H]21)C[C@@]1(CCCc2cc(Cl)ccc21)CO3` [Example 328]: the IC50 in assay [1] came out at 0.049 nM. For the same compound, in the assay with SKBR3 cells (Homo sapiens, SK-BR-3, 72 h), the EC50 is 72.2 nM.
With `CO[C@H]1/C=C/CCC[S@@](=O)(NC(=O)NC2(C(F)(F)F)CC2)=NC(=O)c2ccc3c(c2)N(C[C@@H]2CC[C@H]21)C[C@@]1(CCCc2cc(Cl)ccc21)CO3` [Example 32], the IC50 in assay [1] turned out to be 1.4 nM. Moreover, the EC50 with SKBR3 cells (Homo sapiens, SK-BR-3, 72 h) is 1480 nM.
The like results for `CO[C@H]1/C=C/C[C@H](C)C[S@@](=O)(NC(=O)c2cn(C)nc2N)=NC(=O)c2ccc3c(c2)N(C[C@@H]2CC[C@H]21)C[C@@]1(CCCc2cc(Cl)ccc21)CO3` [Example 173] were, in that order, 0.087 nM and 67.9 nM.
Turning to `CO[C@H]1/C=C/C[C@H](C)C[S@@](=O)(NC(=O)c2cc3n(c2)CCN(S(C)(=O)=O)C3)=NC(=O)c2ccc3c(c2)N(C[C@@H]2CC[C@H]21)C[C@@]1(CCCc2cc(Cl)ccc21)CO3` [Example 455], in assay [1], the IC50 was 0.147 nM. In the assay with SKBR3 cells (Homo sapiens, SK-BR-3, 72 h), the EC50 was determined as 146 nM.
With `CO[C@H]1/C=C/C[C@H](C)C[S@@](=O)(NC(=O)c2cc(C(=O)N(C)C)n(C)c2)=NC(=O)c2ccc3c(c2)N(C[C@@H]2CC[C@H]21)C[C@@]1(CCCc2cc(Cl)ccc21)CO3` [Example 332], the IC50 in assay [1] was 0.071 nM. The EC50 in the assay on SKBR3 cells (Homo sapiens, SK-BR-3, 72 h) was 51.1 nM.
The like results for `CO[C@H]1/C=C/C[C@H](C)C[S@@](=O)(NC(=O)N[C@@H]2C[C@H]2F)=NC(=O)c2ccc3c(c2)N(C[C@@H]2CC[C@H]21)C[C@@]1(CCCc2cc(Cl)ccc21)CO3` [Example 364] were, in that order, 0.064 nM and 259 nM.
The like results for `CO[C@H]1/C=C/C[C@H](C)C[S@@](=O)(NC(=O)c2cnn(C3CCC3)c2)=NC(=O)c2ccc3c(c2)N(C[C@@H]2CC[C@H]21)C[C@@]1(CCCc2cc(Cl)ccc21)CO3` [Example 176] were, in that order, 0.138 nM and 79.3 nM.
The like results for `COCCn1cc(C(=O)N[S@@]2(=O)=NC(=O)c3ccc4c(c3)N(C[C@@H]3CC[C@H]3[C@@H](OC)/C=C/C[C@H](C)C2)C[C@@]2(CCCc3cc(Cl)ccc32)CO4)cc1COC` [Example 337] were, in that order, 0.05 nM and 86.4 nM.
